Reference: US8435980B2 (AbbVie Inc., priority 2009, dated 2013)
Like-named read-outs stand apart in the source and are kept apart here.

Biological target: T1, Cdc7 (BEV coexpressed huCDC7/DBF4) (Homo sapiens, UniProt O00311)
T1 construct: made in house; host or cells: BEV (baculovirus expression vector) co-expression; insect cells are implied but no cell line is named
Assay: Cdc7 enzyme inhibition assay ([33P]ATP, biotinylated peptide substrate, FlashPlate)
Assay type: biochemical
Procedure: Cdc7 (BEV coexpressed huCDC7/DBF4) is prepared internally. Cdc7 assays are conducted as follows with final concentrations as listed. […] Reactions are quenched after 1 hr by the addition of 90 μL stop buffer (50 mM EDTA, 2M NaCl). […] (Ki) for exemplary compounds.

[1] = Table 3, enzyme inhibition data (Ki)

T1 sequence (O00311 whole entry): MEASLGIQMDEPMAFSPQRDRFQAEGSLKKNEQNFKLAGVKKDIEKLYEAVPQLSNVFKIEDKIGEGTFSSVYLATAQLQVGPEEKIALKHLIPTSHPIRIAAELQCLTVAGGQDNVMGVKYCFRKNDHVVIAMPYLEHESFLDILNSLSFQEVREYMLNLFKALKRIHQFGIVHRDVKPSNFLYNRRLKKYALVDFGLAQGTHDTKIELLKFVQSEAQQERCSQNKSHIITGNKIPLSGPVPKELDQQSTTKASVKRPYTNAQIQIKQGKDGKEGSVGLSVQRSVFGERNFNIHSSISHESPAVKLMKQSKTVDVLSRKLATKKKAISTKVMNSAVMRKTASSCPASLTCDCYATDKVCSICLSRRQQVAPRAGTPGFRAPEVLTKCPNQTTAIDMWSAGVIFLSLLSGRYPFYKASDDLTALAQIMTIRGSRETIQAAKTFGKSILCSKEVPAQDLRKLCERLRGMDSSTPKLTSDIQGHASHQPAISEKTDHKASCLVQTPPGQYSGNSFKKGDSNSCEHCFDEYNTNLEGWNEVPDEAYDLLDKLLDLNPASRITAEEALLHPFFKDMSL
T1 sequence (Q9UBU7 whole entry partner): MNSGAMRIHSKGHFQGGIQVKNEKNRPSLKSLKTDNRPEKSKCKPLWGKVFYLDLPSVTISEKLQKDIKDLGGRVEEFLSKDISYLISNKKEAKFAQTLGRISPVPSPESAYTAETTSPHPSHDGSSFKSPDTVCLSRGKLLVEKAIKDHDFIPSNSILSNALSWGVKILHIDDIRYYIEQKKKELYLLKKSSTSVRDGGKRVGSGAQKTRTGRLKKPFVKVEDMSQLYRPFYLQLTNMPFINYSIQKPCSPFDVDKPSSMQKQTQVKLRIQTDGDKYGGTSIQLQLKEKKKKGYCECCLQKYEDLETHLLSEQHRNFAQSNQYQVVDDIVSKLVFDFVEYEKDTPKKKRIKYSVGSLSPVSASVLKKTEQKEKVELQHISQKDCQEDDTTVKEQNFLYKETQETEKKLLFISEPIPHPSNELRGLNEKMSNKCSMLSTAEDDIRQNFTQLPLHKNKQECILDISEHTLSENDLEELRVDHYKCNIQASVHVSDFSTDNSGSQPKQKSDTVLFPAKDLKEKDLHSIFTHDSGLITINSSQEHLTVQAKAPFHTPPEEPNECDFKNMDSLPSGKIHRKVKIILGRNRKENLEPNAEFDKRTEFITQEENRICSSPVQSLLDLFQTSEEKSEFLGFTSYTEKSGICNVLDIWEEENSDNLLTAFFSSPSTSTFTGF

Row | Ki [nM] | Ki [1] [nM] | Compound
1 | 10 to 100 | – | CC(O)CNc1cc(-c2c[nH]c3ncccc23)cc(Cl)n1 (stereo not shown) [Example 39, 1-{[6-chloro-4-(1H-pyrrolo[2,3-b]pyridin-3-yl)pyridin-2-yl]amino}propan-2-ol]
2 | 10 to 100 | – | CC(C)(CO)CNc1cc(-c2c[nH]c3ncccc23)cc(Cl)n1 [Example 40, 3-{[6-chloro-4-(1H-pyrrolo[2,3-b]pyridin-3-yl)pyridin-2-yl]amino}-2,2-dimethylpropan-1-ol]
3 | 10 to 100 | – | OCCOCCNc1cc(-c2c[nH]c3ncccc23)cc(Cl)n1 [Example 41, 2-(2-{[6-chloro-4-(1H-pyrrolo[2,3-b]pyridin-3-yl)pyridin-2-yl]amino}ethoxy)ethanol]
4 | < 10 | – | N[C@H]1CC[C@H](Nc2nc(Cl)cc(-c3c[nH]c4ncccc34)n2)CC1 [Example 42, trans-N-[4-chloro-6-(1H-pyrrolo[2,3-b]pyridin-3-yl)pyrimidin-2-yl]cyclohexane-1,4-diamine]
5 | < 10 | – | O[C@H]1CC[C@H](Nc2nc(Cl)cc(-c3c[nH]c4ncccc34)n2)CC1 [Example 44, Trans-4-{[4-chloro-6-(1H-pyrrolo[2,3-b]pyridin-3-yl)pyrimidin-2-yl]amino}cyclohexanol]
6 | 10 to 100 | – | Clc1cc(-c2c[nH]c3ncccc23)nc(NCc2ccccc2)n1 [Example 46, N-benzyl-4-chloro-6-(1H-pyrrolo[2,3-b]pyridin-3-yl)pyrimidin-2-amine]
7 | 10 to 100 | – | OCC(Cc1ccccc1)Nc1nc(Cl)cc(-c2c[nH]c3ncccc23)n1 (stereo not shown) [Example 47, 2-{[4-chloro-6-(1H-pyrrolo[2,3-b]pyridin-3-yl)pyrimidin-2-yl]amino}-3-phenylpropan-1-ol]
8 | 10 to 100 | – | COC[C@H](Cc1ccccc1)Nc1nc(Cl)cc(-c2c[nH]c3ncccc23)n1 [Example 48, (S)-4-chloro-N-(1-methoxy-3-phenylpropan-2-yl)-6-(1H-pyrrolo[2,3-b]pyridine-3-yl)pyrimidin-2-amine]
9 | < 10 | – | Clc1cc(-c2c[nH]c3ncccc23)nc(NC2CCCCC2)n1 [Example 49, 4-chloro-N-cyclohexyl-6-(1H-pyrrolo[2,3-b]pyridin-3-yl)pyrimidin-2-amine]
10 | – | < 10 | CS(=O)(=O)N1CCC(Nc2cc(-c3c[nH]c4ncccc34)cc(Cl)n2)CC1 [Example 51, 6-chloro-N-[1-(methylsulfonyl)piperidin-4-yl]-4-(1H-pyrrolo[2,3-b]pyridin 3-yl)pyridin-2-amine]
11 | – | < 10 | O=S(=O)(NC1CCC(Nc2cc(-c3c[nH]c4ncccc34)cc(Cl)n2)CC1)c1ccccc1 (stereo not shown) [Example 52, N-(4-{[6-chloro-4-(1H-pyrrolo[2,3-b]pyridin-3-yl)pyridin-2-yl]amino}cyclohexyl)benzenesulfonamide]
12 | – | < 10 | O=S(=O)(Cc1ccccc1)NC1CCC(Nc2cc(-c3c[nH]c4ncccc34)cc(Cl)n2)CC1 (stereo not shown) [Example 53, N-(4-{[6-chloro-4-(1H-pyrrolo[2,3-b]pyridin-3-yl)pyridin-2-yl]amino}cyclohexyl)-1-phenylmethanesulfonamide]
13 | – | < 10 | O=S(=O)(NC1CCC(Nc2cc(-c3c[nH]c4ncccc34)cc(Cl)n2)CC1)c1cccnc1 (stereo not shown) [Example 54, N-(4-{[6-chloro-4-(1H-pyrrolo[2,3-b]pyridin-3-yl)pyridin-2-yl]amino}cyclohexyl)pyridine-3-sulfonamide]
14 | – | < 10 | CCCS(=O)(=O)NC1CCC(Nc2cc(-c3c[nH]c4ncccc34)cc(Cl)n2)CC1 (stereo not shown) [Example 55, N-(4-{[6-chloro-4-(1H-pyrrolo[2,3-b]pyridin-3-yl)pyridin-2-yl]amino}cyclohexyl)propane-1-sulfonamide]
15 | – | < 10 | Clc1cc(-c2c[nH]c3ncccc23)cc(NCCN2CCOCC2)n1 [Example 56, 6-chloro-N-[2-(morpholin-4-yl)ethyl]-4-(1H-pyrrolo[2,3-b]pyridin-3-yl)pyridin-2-amine]
16 | – | < 10 | Oc1cccc(CCNc2cc(-c3c[nH]c4ncccc34)cc(Cl)n2)c1 [Example 57, 3-(2-{[6-chloro-4-(1H-pyrrolo[2,3-b]pyridin-3-yl)pyridin-2-yl]amino}ethyl)phenol]
17 | – | < 10 | CC(C)CNC1CCCC(Nc2cc(-c3c[nH]c4ncccc34)cc(Cl)n2)C1 (stereo not shown) [Example 58, N-[6-chloro-4-(1H-pyrrolo[2,3-b]pyridin-3-yl)pyridin-2-yl]-N′-(2-methylpropyl)cyclohexane-1,3-diamine]
18 | – | < 10 | CN(C)C1CCCC(Nc2cc(-c3c[nH]c4ncccc34)cc(Cl)n2)C1 (stereo not shown) [Example 59, N′-[6-chloro-4-(1H-pyrrolo[2,3-b]pyridin-3-yl)pyridin-2-yl]-N,N-dimethylcyclohexane-1,3-diamine]
19 | – | < 10 | O=C(NC1CCCC1)NC1CCC(Nc2cc(-c3c[nH]c4ncccc34)cc(Cl)n2)CC1 (stereo not shown) [Example 60, 1-(4-{[6-chloro-4-(1H-pyrrolo[2,3-b]pyridin-3-yl)pyridin-2-yl]amino}cyclohexyl)-3-cyclopentylurea]

Row | Ki [nM] | Ki [1] [nM] | Compound
20 | – | < 10 | O=S(=O)(N[C@H]1CC[C@H](Nc2cc(-c3c[nH]c4ncccc34)cc(Cl)n2)CC1)C1CC1 [Example 61, N-(trans-4-{[6-chloro-4-(1H-pyrrolo[2,3-b]pyridin-3-yl)pyridin-2-yl]amino}cyclohexyl)cyclopropanesulfonamide]
21 | – | < 10 | CCCNC(=O)NC1CCC(Nc2cc(-c3c[nH]c4ncccc34)cc(Cl)n2)CC1 (stereo not shown) [Example 62, 1-(4-{[6-chloro-4-(1H-pyrrolo[2,3-b]pyridin-3-yl)pyridin-2-yl]amino}cyclohexyl)-3-propylurea]
22 | – | < 10 | O=C(N[C@H]1CC[C@H](Nc2cc(-c3c[nH]c4ncccc34)cc(Cl)n2)CC1)C1CC1 [Example 63, N-(trans-4-{[6-chloro-4-(1H-pyrrolo[2,3-b]pyridin-3-yl)pyridin-2-yl]amino}cyclohexyl)cyclopropanecarboxamide]
23 | – | < 10 | CC(C)C(=O)NC1CCC(Nc2cc(-c3c[nH]c4ncccc34)cc(Cl)n2)CC1 (stereo not shown) [Example 64, N-(4-{[6-chloro-4-(1H-pyrrolo[2,3-b]pyridin-3-yl)pyridin-2-yl]amino}cyclohexyl)-2-methylpropanamide]
24 | – | < 10 | O=C(NC1CCC(Nc2cc(-c3c[nH]c4ncccc34)cc(Cl)n2)CC1)c1ccccc1 (stereo not shown) [Example 65, N-(4-{[6-chloro-4-(1H-pyrrolo[2,3-b]pyridin-3-yl)pyridin-2-yl]amino}cyclohexyl)benzamide]
25 | – | < 10 | O=C(Nc1ccccc1)NC1CCC(Nc2cc(-c3c[nH]c4ncccc34)cc(Cl)n2)CC1 (stereo not shown) [Example 66, 1-(4-{[6-chloro-4-(1H-pyrrolo[2,3-b]pyridin-3-yl)pyridin-2-yl]amino}cyclohexyl)-3-phenylurea]
26 | – | < 10 | Clc1cc(-c2c[nH]c3ncccc23)cc(NC2CCCC(NCc3cccnc3)C2)n1 (stereo not shown) [Example 67, N-[6-chloro-4-(1H-pyrrolo[2,3-b]pyridin-3-yl)pyridin-2-yl]-N′-(pyridin-3-ylmethyl)cyclohexane-1,3-diamine]
27 | – | < 10 | Clc1cc(-c2c[nH]c3ncccc23)cc(NC2CCCC(NC3CCC3)C2)n1 (stereo not shown) [Example 68, N-[6-chloro-4-(1H-pyrrolo[2,3-b]pyridin-3-yl)pyridin-2-yl]-1-N′-cyclobutylcyclohexane-1,3-diamine]
28 | – | < 10 | O=C(NC1CCCC(Nc2cc(-c3c[nH]c4ncccc34)cc(Cl)n2)C1)C1CC1 (stereo not shown) [Example 69, N-(3-{[6-chloro-4-(1H-pyrrolo[2,3-b]pyridin-3-yl)pyridin-2-yl]amino}cyclohexyl)cyclopropanecarboxamide]
29 | – | < 10 | CCCN1CCC(C(=O)NC2CCCC(Nc3cc(-c4c[nH]c5ncccc45)cc(Cl)n3)C2)CC1 (stereo not shown) [Example 70, N-(3-{[6-chloro-4-(1H-pyrrolo[2,3-b]pyridin-3-yl)pyridin-2-yl]amino}cyclohexyl)-1-propylpiperidine-4-carboxamide]
30 | – | < 10 | O=C(NC1CCCC(Nc2cc(-c3c[nH]c4ncccc34)cc(Cl)n2)C1)c1cc[nH]n1 (stereo not shown) [Example 71, N-(3-{[6-chloro-4-(1H-pyrrolo[2,3-b]pyridin-3-yl)pyridin-2-yl]amino}cyclohexyl)-1H-pyrazole-3-carboxamide]
31 | – | < 10 | Clc1cc(-c2c[nH]c3ncccc23)cc(NC2CCCC(NCC3CCCNC3)C2)n1 (stereo not shown) [Example 72, N-[6-chloro-4-(1H-pyrrolo[2,3-b]pyridin-3-yl)pyridin-2-yl]-N′-(piperidin-3-ylmethyl)cyclohexane-1,3-diamine]
32 | – | < 10 | O=C(CNC(=O)c1ccccc1)NC1CCCC(Nc2cc(-c3c[nH]c4ncccc34)cc(Cl)n2)C1 (stereo not shown) [Example 73, N-{2-[(3-{[6-chloro-4-(1H-pyrrolo[2,3-b]pyridin-3-yl)pyridin-2-yl]-amino}cyclohexyl)amino]-2-oxoethyl}benzamide]
33 | – | < 10 | O=S(=O)(NC1CCCC(Nc2cc(-c3c[nH]c4ncccc34)cc(Cl)n2)C1)C1CC1 (stereo not shown) [Example 76, N-(3-{[6-chloro-4-(1H-pyrrolo[2,3-b]pyridin-3-yl)pyridin-2-yl]amino}cyclohexyl)cyclopropanesulfonamide]
34 | – | < 10 | CCCS(=O)(=O)NC1CCCC(Nc2cc(-c3c[nH]c4ncccc34)cc(Cl)n2)C1 (stereo not shown) [Example 77, N-(3-{[6-chloro-4-(1H-pyrrolo[2,3-b]pyridin-3-yl)pyridin-2-yl]amino}cyclohexyl)propane-1-sulfonamide]
35 | – | < 10 | Cc1ccc(S(=O)(=O)NC2CCCC(Nc3cc(-c4c[nH]c5ncccc45)cc(Cl)n3)C2)cc1 (stereo not shown) [Example 78, N-(3-{[6-chloro-4-(1H-pyrrolo[2,3-b]pyridin-3-yl)pyridin-2-yl]amino}cyclohexyl)-4-methylbenzenesulfonamide]
36 | – | < 10 | CCNC(=O)NC1CCCC(Nc2cc(-c3c[nH]c4ncccc34)cc(Cl)n2)C1 (stereo not shown) [Example 79, 1-(3-{[6-chloro-4-(1H-pyrrolo[2,3-b]pyridin-3-yl)pyridin-2-yl]amino}cyclohexyl)-3-ethylurea]
37 | – | < 10 | O=C(NC1CCCC1)NC1CCCC(Nc2cc(-c3c[nH]c4ncccc34)cc(Cl)n2)C1 (stereo not shown) [Example 80, 1-(3-{[6-chloro-4-(1H-pyrrolo[2,3-b]pyridin-3-yl)pyridin-2-yl]amino}cyclohexyl)-3-cyclopentylurea]
